Data published in patent US9513294B2, “Megastokes amino-triazolyl-BODIPY compounds and applications to live neuron staining and human serum albumin FA1 drug site probing” (National University of Singapore, priority 2012, dated 2016).
Blank lines part the entries; values can stand above or below the compound they belong to.

Experiments:
[1] = Quantum yield measurements versus Acridine Yellow in EtOH; assay type: physicochemical; details: for φ (%): quantum yield; for φ (quantum yield): excitation 460 nm
How it was run: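 Fluorescence quantum yield is relative to Acridine Yellow in EtOH (Φ 0.47), with excitation at 460 nm. Integrated emission at 510–700 nm was corrected for absorbance at the excitation wavelength and for solvent refractive index.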

[2] = Absorbance and fluorescence emission spectra (SpectraMax M2); assay type: physicochemical; details: for λmax Abs. (nm) / λmax Em. (nm): MKAC compound library; for λmax Abs. (nm) / λmax Absorp. (nm): absorbance maximum; for λmax Em. (nm) / λmax Emission (nm): fluorescence emission maximum; for λmax Absorp. (nm) / λmax Emission (nm): MKCA compound library
How it was run: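 Absorbance and emission maxima measured on a SpectraMax M2 spectrophotometer, which also gave quantum yield data; analysis in GraphPrism.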

SMILES: CCOc1ccccc1CNC1=[N+]2C(=C(c3ccc(NC(C)=O)cc3)c3ccc(-n4cc(CO)nn4)n3[B-]2(F)F)C=C1 [MKAC103-70]
φ (%) ([1]; MKAC compound library): 15.35%
λmax Abs. (nm) [2]: 464 nm
λmax Em. (nm) [2]: 558 nm

SMILES: CCCCCC(O)c1cn(-c2ccc3n2[B-](F)(F)[N+]2=C(NCc4cc(F)cc(F)c4)C=CC2=C3c2ccc(NC(C)=O)cc2)nn1 (stereo not drawn) [MKAC412-69]
φ (%) ([1]; MKAC compound library): 17.68%
λmax Abs. (nm) [2]: 468 nm
λmax Em. (nm) [2]: 563 nm

SMILES: CCCCCC(O)c1cn(-c2ccc3n2[B-](F)(F)[N+]2=C(N(C)Cc4ccccc4)C=CC2=C3c2ccc(NC(=O)CCl)cc2)nn1 (stereo not drawn) [MKCA195-69]
φ (%) ([1]; MKCA compound library): 4.20%
λmax Absorp. (nm) [2]: 466 nm
λmax Emission (nm) [2]: 582 nm

SMILES: COc1ccc2cc(-c3cn(-c4ccc5n4[B-](F)(F)[N+]4=C(N6CCCCC6)C=CC4=C5c4ccc(NC(C)=O)cc4)nn3)ccc2c1 [BDCAC-22]
φ (quantum yield) ([1]; BDCAC library, Table 3): 1.2%
λmax Absorp. ([2]; BDCAC library, Table 3): 465 nm
λmax Emission ([2]; BDCAC library, Table 3): 585 nm

SMILES: COc1ccc(OC)c(CNC2=[N+]3C(=C(c4ccc(N)cc4)c4ccc(-n5cc(CO)nn5)n4[B-]3(F)F)C=C2)c1 [MK181-70]
φ (quantum yield) ([1]; MK library, Table 5): 0.88%
λmax Absorp. ([2]; MK library, Table 5): 472 nm
λmax Emission ([2]; MK library, Table 5): 568 nm

SMILES: Nc1ccc(C2=C3C=CC(N4CCCCC4)=[N+]3[B-](F)(F)n3c2ccc3-n2cc(CO)nn2)cc1 [BDC-70]
φ (quantum yield) ([1]; BDC library, Table 2): 0.13%
λmax Absorp. ([2]; BDC library, Table 2): 474 nm
λmax Emission ([2]; BDC library, Table 2): 586 nm

SMILES: CC(=O)Nc1ccc(C2=C3C=CC(N4CCCCC4)=[N+]3[B-](F)(F)n3c2ccc3-n2cc(-c3ccc(N(C)C)cc3)nn2)cc1 [BDCAC-13]
φ (quantum yield) ([1]; BDCAC library, Table 3): 0.1%
λmax Absorp. ([2]; BDCAC library, Table 3): 467 nm
λmax Emission ([2]; BDCAC library, Table 3): 619 nm

SMILES: Nc1ccc(C2=C3C=CC(N4CCc5ccccc5C4)=[N+]3[B-](F)(F)n3c2ccc3-n2cc(C3CC3)nn2)cc1 [MK66-4]
φ (quantum yield) ([1]; MK library, Table 5): 0.12%
λmax Absorp. ([2]; MK library, Table 5): 479 nm
λmax Emission ([2]; MK library, Table 5): 587 nm

SMILES: COc1ccc(OC)c(CNC2=[N+]3C(=C(c4ccc(N)cc4)c4ccc(-n5cc(C6CC6)nn5)n4[B-]3(F)F)C=C2)c1 [MK181-4]
φ (quantum yield) ([1]; MK library, Table 5): 0.28%
λmax Absorp. ([2]; MK library, Table 5): 474 nm
λmax Emission ([2]; MK library, Table 5): 566 nm

SMILES: CCOc1ccccc1CNC1=[N+]2C(=C(c3ccc(N)cc3)c3ccc(-n4cc(CCc5ccccc5)nn4)n3[B-]2(F)F)C=C1 [MK103-19]
φ (quantum yield) ([1]; MK library, Table 5): 1.96%
λmax Absorp. ([2]; MK library, Table 5): 472 nm
λmax Emission ([2]; MK library, Table 5): 568 nm

SMILES: CCCCCC(O)c1cn(-c2ccc3n2[B-](F)(F)[N+]2=C(N4CCCC4)C=CC2=C3c2ccc(NC(C)=O)cc2)nn1 (racemic) [MKAC215-69]
φ (%) ([1]; MKAC compound library): 2.00%
λmax Abs. (nm) [2]: 462 nm
λmax Em. (nm) [2]: 566 nm

SMILES: COc1ccc(OC)c(CNC2=[N+]3C(=C(c4ccc(N)cc4)c4ccc(-n5cc(CN(C)Cc6ccccc6)nn5)n4[B-]3(F)F)C=C2)c1 [MK181-18]
φ (quantum yield) ([1]; MK library, Table 5): 0.52%
λmax Absorp. ([2]; MK library, Table 5): 473 nm
λmax Emission ([2]; MK library, Table 5): 563 nm

SMILES: CCCC(C)c1cn(-c2ccc3n2[B-](F)(F)[N+]2=C(NCc4ccccc4OCC)C=CC2=C3c2ccc(NC(=O)CCl)cc2)nn1 (stereo not drawn) [MKCA103-3]
φ (%) ([1]; MKCA compound library): 23.61%
λmax Absorp. (nm) [2]: 466 nm
λmax Emission (nm) [2]: 562 nm

SMILES: COc1cc(OC)cc(-c2cn(-c3ccc4n3[B-](F)(F)[N+]3=C(N5CCCCC5)C=CC3=C4c3ccc(NC(=O)CCl)cc3)nn2)c1 [BDCCA-14]
φ (quantum yield) ([1]; BDCCA library, Table 4): 0.8%
λmax Absorp. ([2]; BDCCA library, Table 4): 463 nm
λmax Emission ([2]; BDCCA library, Table 4): 589 nm

SMILES: Nc1ccc(C2=C3C=CC(N4CCCC4)=[N+]3[B-](F)(F)n3c2ccc3-n2cc(C3CCCC3)nn2)cc1 [MK215-5]
φ (quantum yield) ([1]; MK library, Table 5): 0.53%
λmax Absorp. ([2]; MK library, Table 5): 471 nm
λmax Emission ([2]; MK library, Table 5): 568 nm

More lines, now with the values ahead:

φ (%) ([1]; MKCA compound library): 38.23%
λmax Absorp. (nm) [2]: 465 nm
λmax Emission (nm) [2]: 562 nm
SMILES: CCCc1cn(-c2ccc3n2[B-](F)(F)[N+]2=C(NCc4ccccc4OCC)C=CC2=C3c2ccc(NC(=O)CCl)cc2)nn1 [MKCA103-48]

φ (quantum yield) ([1]; BDC library, Table 2): 0.28%
λmax Absorp. ([2]; BDC library, Table 2): 470 nm
λmax Emission ([2]; BDC library, Table 2): 564 nm
SMILES: Cc1ccc(-c2cn(-c3ccc4n3[B-](F)(F)[N+]3=C(N5CCCCC5)C=CC3=C4c3ccc(N)cc3)nn2)cc1 [BDC-10]

φ (quantum yield) ([1]; MK library, Table 5): 1.92%
λmax Absorp. ([2]; MK library, Table 5): 474 nm
λmax Emission ([2]; MK library, Table 5): 565 nm
SMILES: Cc1ccccc1CNC1=[N+]2C(=C(c3ccc(N)cc3)c3ccc(-n4cc(CO)nn4)n3[B-]2(F)F)C=C1 [MK101-70]

φ (%) ([1]; MKAC compound library): 3.96%
λmax Abs. (nm) [2]: 461 nm
λmax Em. (nm) [2]: 561 nm
SMILES: CC(=O)Nc1ccc(C2=C3C=CC(NCc4cc(F)cc(F)c4)=[N+]3[B-](F)(F)n3c2ccc3-n2cc(CO)nn2)cc1 [MKAC412-70]

φ (quantum yield) ([1]; BDCCA library, Table 4): 1.2%
λmax Absorp. ([2]; BDCCA library, Table 4): 464 nm
λmax Emission ([2]; BDCCA library, Table 4): 575 nm
SMILES: O=C(CCl)Nc1ccc(C2=C3C=CC(N4CCCCC4)=[N+]3[B-](F)(F)n3c2ccc3-n2cc(-c3ccc(-c4ccccc4)cc3)nn2)cc1 [BDCCA-23]

φ (quantum yield) ([1]; BDCAC library, Table 3): 1.0%
λmax Absorp. ([2]; BDCAC library, Table 3): 464 nm
λmax Emission ([2]; BDCAC library, Table 3): 588 nm
SMILES: COc1cc(OC)cc(-c2cn(-c3ccc4n3[B-](F)(F)[N+]3=C(N5CCCCC5)C=CC3=C4c3ccc(NC(C)=O)cc3)nn2)c1 [BDCAC-14]

φ (%) ([1]; MKAC compound library): 18.26%
λmax Abs. (nm) [2]: 467 nm
λmax Em. (nm) [2]: 560 nm
SMILES: CC(=O)Nc1ccc(C2=C3C=CC(NCc4cc(F)cc(F)c4)=[N+]3[B-](F)(F)n3c2ccc3-n2cc(CC(C)C)nn2)cc1 [MKAC412-43]

φ (%) ([1]; MKCA compound library): 3.23%
λmax Absorp. (nm) [2]: 469 nm
λmax Emission (nm) [2]: 586 nm
SMILES: CCCCCC(O)c1cn(-c2ccc3n2[B-](F)(F)[N+]2=C(N4CC(C)OC(C)C4)C=CC2=C3c2ccc(NC(=O)CCl)cc2)nn1 (stereo not drawn) [MKCA20-69]

φ (%) ([1]; MKCA compound library): 21.21%
λmax Absorp. (nm) [2]: 465 nm
λmax Emission (nm) [2]: 564 nm
SMILES: COc1ccc(OC)c(CNC2=[N+]3C(=C(c4ccc(NC(=O)CCl)cc4)c4ccc(-n5cc(CC(C)C)nn5)n4[B-]3(F)F)C=C2)c1 [MKCA181-43]

φ (quantum yield) ([1]; MK library, Table 5): 0.19%
λmax Absorp. ([2]; MK library, Table 5): 481 nm
λmax Emission ([2]; MK library, Table 5): 582 nm
SMILES: Nc1ccc(C2=C3C=CC(N4CCc5ccccc5C4)=[N+]3[B-](F)(F)n3c2ccc3-n2cc(C3CCCC3)nn2)cc1 [MK66-5]

φ (%) ([1]; MKCA compound library): 21.65%
λmax Absorp. (nm) [2]: 462 nm
λmax Emission (nm) [2]: 563 nm
SMILES: COc1ccc(OC)c(CNC2=[N+]3C(=C(c4ccc(NC(=O)CCl)cc4)c4ccc(-n5cc(CN(C)Cc6ccccc6)nn5)n4[B-]3(F)F)C=C2)c1 [MKCA181-18]

φ (quantum yield) ([1]; BDC library, Table 2): 0.57%
λmax Absorp. ([2]; BDC library, Table 2): 466 nm
λmax Emission ([2]; BDC library, Table 2): 547 nm
SMILES: Nc1ccc(C2=C3C=CC(N4CCCCC4)=[N+]3[B-](F)(F)n3c2ccc3-n2cc(-c3cc(C(F)(F)F)cc(C(F)(F)F)c3)nn2)cc1 [BDC-30]

φ (%) ([1]; MKCA compound library): 34.56%
λmax Absorp. (nm) [2]: 464 nm
λmax Emission (nm) [2]: 565 nm
SMILES: Cc1ccccc1CNC1=[N+]2C(=C(c3ccc(NC(=O)CCl)cc3)c3ccc(-n4cc(C5CC5)nn4)n3[B-]2(F)F)C=C1 [MKCA101-4]

φ (quantum yield) ([1]; BDCAC library, Table 3): 1.6%
λmax Absorp. ([2]; BDCAC library, Table 3): 465 nm
λmax Emission ([2]; BDCAC library, Table 3): 561 nm
SMILES: CCCCCc1ccc(-c2cn(-c3ccc4n3[B-](F)(F)[N+]3=C(N5CCCCC5)C=CC3=C4c3ccc(NC(C)=O)cc3)nn2)cc1 [BDCAC-29]

φ (%) ([1]; MKAC compound library): 1.00%
λmax Abs. (nm) [2]: 463 nm
λmax Em. (nm) [2]: 574 nm
SMILES: CC(=O)Nc1ccc(C2=C3C=CC(N4CCCC4)=[N+]3[B-](F)(F)n3c2ccc3-n2cc(C3CCCC3)nn2)cc1 [MKAC215-5]

φ (%) ([1]; MKAC compound library): 17.25%
λmax Abs. (nm) [2]: 465 nm
λmax Em. (nm) [2]: 562 nm
SMILES: CCCc1cn(-c2ccc3n2[B-](F)(F)[N+]2=C(NCc4ccccc4C)C=CC2=C3c2ccc(NC(C)=O)cc2)nn1 [MKAC101-48]

φ (quantum yield) ([1]; MK library, Table 5): 0.41%
λmax Absorp. ([2]; MK library, Table 5): 475 nm
λmax Emission ([2]; MK library, Table 5): 571 nm
SMILES: CC(C)Cc1cn(-c2ccc3n2[B-](F)(F)[N+]2=C(N(C)Cc4ccccc4)C=CC2=C3c2ccc(N)cc2)nn1 [MK195-43]

φ (%) ([1]; MKCA compound library): 36.22%
λmax Absorp. (nm) [2]: 464 nm
λmax Emission (nm) [2]: 564 nm
SMILES: CCOc1ccccc1CNC1=[N+]2C(=C(c3ccc(NC(=O)CCl)cc3)c3ccc(-n4cc(C5CC5)nn4)n3[B-]2(F)F)C=C1 [MKCA103-4]

φ (quantum yield) ([1]; MK library, Table 5): 2.40%
λmax Absorp. ([2]; MK library, Table 5): 475 nm
λmax Emission ([2]; MK library, Table 5): 563 nm
SMILES: CCCCCC(O)c1cn(-c2ccc3n2[B-](F)(F)[N+]2=C(NCc4ccccc4C)C=CC2=C3c2ccc(N)cc2)nn1 (stereo not drawn) [MK101-69]
